ChEMBL document CHEMBL1201862, “PubChem BioAssay data set” (2004)
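Step 1: Grow cells in 96-well plates. Step 2: Expose to compound for 48 hours at 5 concentrations. Step 3: Interpolate endpoints linearly; if unreached, use highest concentration. Here, GI50 denotes the concentration required for 50% inhibition of growth.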 The source made the active and inactive calls. Rule as the data show it: active = GI50 up to about 1.1 µM and inactive = higher.

Tests used:
Assay in all cases: inhibition of tumour cell growth, NCI panel, 48 h
HL-60 = system: HL-60
SF-268 = system: SF-268
TK-10 = system: TK-10
EKVX = system: EKVX
OVCAR-3 = system: OVCAR-3
U-251 = system: U-251
Malme-3M = system: Malme-3M
CAKI-1 = system: CAKI-1
SK-MEL-2 = system: SK-MEL-2
Hs-578T = system: Hs-578T
OVCAR-5 = system: OVCAR-5
SN12C = system: SN12C
SNB-75 = system: SNB-75
786-0 = system: 786-0
MDA-MB-231 = system: MDA-MB-231
SNB-19 = system: SNB-19
UACC-257 = system: UACC-257
KM12 = system: KM12
DU-145 = system: DU-145

Measured: GI50

N=C(N)NNC(=O)C(=O)O
inactive: HL-60 > 100 µM | SF-268 > 100 µM | TK-10 > 100 µM | EKVX > 100 µM | OVCAR-3 > 100 µM | U-251 > 100 µM | Malme-3M > 100 µM | CAKI-1 > 100 µM | SK-MEL-2 > 100 µM | Hs-578T > 100 µM | OVCAR-5 > 100 µM | SN12C > 100 µM | SNB-75 > 100 µM | 786-0 > 100 µM | MDA-MB-231 > 100 µM | SNB-19 > 100 µM | UACC-257 > 100 µM | KM12 > 100 µM | DU-145 > 100 µM

O=C(O)/C=C/C(=O)Nc1cccc2c1-c1ccccc1C2=O
inactive: HL-60 1.28 µM | SF-268 16.3 µM | TK-10 5.68 µM | EKVX > 90.8 µM | OVCAR-3 2.21 µM | U-251 5.27 µM | Malme-3M 8.28 µM | CAKI-1 4.26 µM | SK-MEL-2 3.56 µM | Hs-578T 3.76 µM | OVCAR-5 > 63.4 µM | SN12C 36.6 µM | SNB-75 > 20.6 µM | 786-0 9.53 µM | MDA-MB-231 13.3 µM | SNB-19 17.9 µM | UACC-257 3.75 µM | KM12 16.9 µM | DU-145 10.3 µM

COc1cc(OC)c2c(O)c3c(cc2c1)CC(C)(C)CC3=O
inactive: HL-60 > 32.7 µM | SF-268 > 100 µM | TK-10 > 100 µM | EKVX > 100 µM | OVCAR-3 > 74.1 µM | U-251 56.5 µM | Malme-3M 48.5 µM | CAKI-1 > 100 µM | SK-MEL-2 > 100 µM | Hs-578T 16.3 µM | OVCAR-5 > 100 µM | SN12C > 100 µM | SNB-75 49.7 µM | 786-0 > 67.3 µM | MDA-MB-231 > 100 µM | SNB-19 > 100 µM | UACC-257 > 100 µM | KM12 > 92.3 µM | DU-145 > 100 µM

N/N=C(\c1nc2ccc([N+](=O)[O-])cc2nc1O)C(O)c1ccc(Cl)c(Cl)c1 (stereo not drawn)
inactive: HL-60 47.4 µM | SF-268 > 100 µM | TK-10 > 100 µM | EKVX > 100 µM | OVCAR-3 > 100 µM | U-251 > 100 µM | Malme-3M > 100 µM | CAKI-1 > 100 µM | SK-MEL-2 > 100 µM | Hs-578T > 100 µM | OVCAR-5 > 100 µM | SN12C > 100 µM | SNB-75 > 100 µM | 786-0 > 100 µM | MDA-MB-231 > 100 µM | SNB-19 > 100 µM | UACC-257 > 100 µM | KM12 28.3 µM | DU-145 > 100 µM

O=C(O)c1ccn(-c2cccc(-n3ccc(C(=O)O)n3)n2)n1
inactive: HL-60 > 100 µM | SF-268 > 100 µM | TK-10 > 100 µM | EKVX > 100 µM | OVCAR-3 > 100 µM | U-251 > 100 µM | Malme-3M > 100 µM | CAKI-1 > 100 µM | SK-MEL-2 > 100 µM | Hs-578T > 100 µM | OVCAR-5 > 100 µM | SN12C > 100 µM | SNB-75 > 100 µM | 786-0 > 100 µM | MDA-MB-231 > 100 µM | SNB-19 > 100 µM | UACC-257 > 100 µM | KM12 > 100 µM | DU-145 > 100 µM

[N-]=[N+]=Nc1ccc2c(c1)Sc1ccccc1N2CCCCCl
inactive: HL-60 15.3 µM | SF-268 41.9 µM | TK-10 > 100 µM | EKVX 56 µM | OVCAR-3 82.2 µM | U-251 23.7 µM | Malme-3M 37.1 µM | CAKI-1 > 100 µM | SK-MEL-2 13.5 µM | Hs-578T 35.8 µM | OVCAR-5 > 100 µM | SN12C > 100 µM | SNB-75 > 100 µM | 786-0 > 100 µM | MDA-MB-231 > 100 µM | SNB-19 > 100 µM | UACC-257 71.9 µM | KM12 53.5 µM | DU-145 > 100 µM

[N-]=[N+]=C(C(=O)OCC#CCOC(=O)C(=[N+]=[N-])S(=O)(=O)c1ccccc1)S(=O)(=O)c1ccccc1
inactive: HL-60 > 10 µM | SF-268 > 10 µM | TK-10 > 10 µM | EKVX > 10 µM | OVCAR-3 > 10 µM | U-251 > 10 µM | Malme-3M > 10 µM | CAKI-1 > 10 µM | SK-MEL-2 > 10 µM | Hs-578T > 10 µM | OVCAR-5 > 10 µM | SN12C > 10 µM | SNB-75 > 10 µM | 786-0 > 10 µM | MDA-MB-231 > 10 µM | SNB-19 > 10 µM | UACC-257 > 10 µM | KM12 > 10 µM | DU-145 > 10 µM
